≈ marks a conversion by molar mass, not a printed value. Read-outs that look alike come from different tables or passages of the source. *1 amine or outer side, *2 acyl side, *3 side chain or, on linkers, in order; H or OH if unused. Where a SMILES comes first, the peptide text is derived from it. Side-chain parts run from the residue outwards. [ ]: non-standard residue; d: D form. The star is where a group is joined. γGlu = O=C(O)[C@H](CCC(=O)[*:2])N[*:1]; Palmitoyl = CCCCCCCCCCCCCCCC(=O)*; αMeK = C[C@](N)(CCCCN)C(=O)O; Aib = CC(C)(N)C(=O)O
Columns and labels:
[1] = molecular target: T1, human GLP-1 receptor (hGLP-1 R) (Homo sapiens, UniProt P43220); assay: cAMP response (HTRF) of HEK-293 cells stably expressing human GLP-1 receptor; type: cell-based; settings: Table 7; cAMP formation
T1 construct: expressed in transfected cells
T1 sequence (P43220 24-463): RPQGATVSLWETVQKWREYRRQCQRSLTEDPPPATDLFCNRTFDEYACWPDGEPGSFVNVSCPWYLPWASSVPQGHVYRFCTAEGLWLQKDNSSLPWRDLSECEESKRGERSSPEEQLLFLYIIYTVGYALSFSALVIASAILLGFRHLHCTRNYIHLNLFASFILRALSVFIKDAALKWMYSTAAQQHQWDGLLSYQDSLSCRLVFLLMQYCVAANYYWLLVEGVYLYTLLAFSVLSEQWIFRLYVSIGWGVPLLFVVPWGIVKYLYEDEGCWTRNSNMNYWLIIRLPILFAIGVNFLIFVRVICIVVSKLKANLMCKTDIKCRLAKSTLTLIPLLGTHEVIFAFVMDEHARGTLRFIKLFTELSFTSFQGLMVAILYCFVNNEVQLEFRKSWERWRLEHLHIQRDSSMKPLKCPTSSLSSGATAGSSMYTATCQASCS
Experimental: cAMP content of cells was determined using a kit from Cisbio Corp. (cat. no. 62AM4PEC) based on HTRF (Homogenous Time Resolved Fluorescence). For preparation, cells were split into T175 culture flasks and grown overnight to near confluency in medium (DMEM/10% FBS). Medium was then removed and cells washed with PBS lacking calcium and magnesium, followed by proteinase treatment with accutase (Sigma-Aldrich cat. no. A6964). Detached cells were washed and resuspended in assay buffer (1×HBSS; 20 mM HEPES, 0.1% BSA, 2 mM IBMX) and cellular density determined. They were then diluted to 400000 cells/ml and 25 μl-aliquots dispensed into the wells of 96-well plates. For measurement, 25 μl of test compound in assay buffer was added to the wells, followed by incubation for 30 minutes at room temperature.

[2] = Solubility testing in buffer, HPLC-UV of supernatant; type: physicochemical; settings: buffer, target concentration 1.0 mg/mL
Experimental: (§1) Solubility and chemical stability of peptidic compounds were assessed as described in Methods.

[3] = Chemical stability in solution, 7 days at 25° C., % remaining peptide; type: physicochemical; settings: % remaining peptide after 7 days at 25° C.
Experimental: The chemical stability is expressed as “% remaining peptide”.
as §1

[4] = Pharmacokinetic testing in mice, s.c., LC/MS of plasma; type: in vivo; settings: mouse, sc, 1 mg/kg s.c.
Experimental: Mice were dosed 1 mg/kg subcutaneously (s.c.).
(§2) Pharmacokinetic profiles were determined as described in Methods.

[5] = Pharmacokinetic testing in female Göttinger minipigs, s.c., LC/MS of plasma; type: in vivo; settings: minipig, sc, Mini pigs, 0.1 mg/kg s.c.
Experimental: as §2

[6] = Subchronic effect on body weight in female diet-induced obese (DIO) C57BL/6NCrl mice (method 2); type: in vivo; settings: for Overall weight change: 3-week treatment, mean ± SEM; for decrease of body weight, relative change from baseline: 3 weeks
Experimental: Female C57BL/6NCrl mice were housed in groups in a specific pathogen-free barrier facility on a 12 h light/dark cycle with free access to water and high-fat diet. After 14 weeks on high-fat diet, mice were stratified to treatment groups (n=8), so that each group had similar mean body weight. An aged-matched group with ad libitum access to standard chow and water was included as standard control group.
Before the experiment, mice were subcutaneously (s.c.) injected with vehicle solution and weighed for 3 days to acclimate them to the procedures. […] Body weight was recorded daily.
Statistical analyses were performed with Everstat 6.0 by repeated measures two-way ANOVA and Dunnett's post-hoc analyses (glucose profile) and 1-way-ANOVA, followed by Dunnett's post-hoc test (body weight, body fat). Differences versus vehicle-treated DIO control mice were considered statistically significant at the p<0.05 level.
Subchronic effects of SEQ ID NO: 11 after subcutaneous treatment on body weight in female diet-induced obese (DIO) C57BL/6NCrl mice (14 weeks of prefeeding with high-rat diet, method 2)
Female obese C57BL/6NCrl mice were treated for 3 weeks once daily subcutaneously in the late afternoon, prior at the end of the light phase (12 h lights on) with 3 μg/kg and 10 μg/kg SEQ ID NO: 11 or vehicle. Body weight was recorded daily.

[7] = system: female diabetic dbdb-mice; assay: 4 weeks of treatment: glucose, HbA1c and oral glucose tolerance in female diabetic dbdb-mice (method 4); type: in vivo; settings: 3 and 10 μg/kg s.c. once daily
Experimental: 8 week old, female diabetic dbdb-mice of mean non-fasted glucose value of 14.5 mmol/l and a body weight of 37-40 g were used. Mice were individually marked and were adapted to housing conditions for at least one week. 7 days prior to study start, baseline values for non-fasted glucose and HbA1c were determined, 5 days prior to study start, mice were assigned to groups and cages (5 mice per cage, 10 per group) according to their HbA1c values to ensure even distribution of lower and higher values between groups (stratification).
Mice were treated for 4 weeks, by once daily subcutaneous administration 3 hours prior to the dark phase (6 pm to 6 am). Blood samples from a tail tip incision were obtained for HbA1c on study day 21 and oral glucose tolerance was assessed in the 4th week. Oral glucose tolerance test was done in the morning without prior extra compound administration to majorly assess the effect of chronic treatment and less of acute compound administration. Mice were fasted for 4 hours prior to oral glucose administration (2 g/kg, t=0 min). Blood samples were drawn prior to glucose administration and at 15, 30, 60, 90, 120, and 180 min thereafter. Feed was returned after the last blood sampling. Results are represented as change from baseline, glucose in mmol/l and HbA1c in %.
Statistical analyses are performed with Everstat Version 6.0 based on SAS by 1-way-ANOVA, followed by Dunnett's post-hoc test against vehicle-control. Differences are considered statistically significant at the p<0.05 level.
Female dbdb-mice, received 3 and 10 μg/kg of SEQ ID NO: 11 or phosphate buffered saline (vehicle control) once daily, subcutaneously over four weeks. […] (FIG. 3).

female NMRI-mice = assay: Gastric emptying and intestinal passage in female NMRI-mice; type: in vivo
Experimental: Female NMRI-mice of a body weight between 20 and 30 g were used. Mice were adapted to housing conditions for at least one week.
Mice were overnight fasted, while water remained available all the time. On the study day, mice were weighed, single-caged and allowed access to 500 mg of feed for 30 min, while water was removed. At the end of the 30 min feeding period, remaining feed was removed and weighed. Then, the test compound/reference compound or its vehicle in the control group was administered subcutaneously. 60 min later, to allow the compound to reach relevant plasma exposure, a coloured, non-caloric bolus was instilled via gavage into the stomach. After another 30 min, the animals were sacrificed and the stomach and the small intestine prepared. The filled stomach was weighed, emptied, carefully cleaned and dried and reweighed. The stomach content, calculated as weight of filled subtracted by the weight of emptied stomach, indicated the degree of gastric emptying. The small intestine was straightened without force and measured in length. Then the distance from the gastric beginning of the gut to the tip of the farthest travelled intestinal content bolus was measured. The intestinal passage was given as ratio in percent of the latter distance and the total length of the small intestine.
Statistical analyses were performed with Everstat 6.0 by 1-way-ANOVA, followed by Dunnett's as post-hoc test. Dunnett's Test was applied to compare versus vehicle control. Differences were considered statistically significant at the p<0.05 level.
Female NMRI-mice, weighing on average 25-30 g, received 1, 10 and 100 μg/kg of SEQ ID NO: 11, or phosphate buffered saline (vehicle control) subcutaneously, 30 min prior to the administration of the coloured bolus. 30 min later, the assessment of stomach contents and intestinal passage was done (FIG. 8).

CCCCCCCCCCCCCCCC(=O)N[C@@H](CCC(=O)NCCCC[C@H](NC(=O)[C@H](CCC(N)=O)NC(=O)[C@@H](NC(=O)[C@H](CO)NC(=O)[C@H](CC(C)C)NC(=O)[C@H](CC(=O)O)NC(=O)[C@H](CO)NC(=O)[C@@H](NC(=O)[C@H](Cc1ccccc1)NC(=O)[C@@H](NC(=O)CNC(=O)[C@H](CCC(=O)O)NC(=O)C(C)(C)NC(=O)[C@@H](N)Cc1ccc(O)cc1)[C@@H](C)O)[C@@H](C)O)[C@@H](C)CC)C(=O)N[C@@H](CCC(=O)O)C(=O)N[C@@H](CCC(=O)O)C(=O)N[C@@H](CCCNC(=N)N)C(=O)N[C@@H](C)C(=O)N[C@@H](C)C(=O)N[C@@](C)(CCCCN)C(=O)N[C@@H](CCC(=O)O)C(=O)N[C@@H](Cc1ccccc1)C(=O)N[C@H](C(=O)N[C@@H](CCC(=O)O)C(=O)N[C@@H](Cc1c[nH]c2ccccc12)C(=O)N[C@@H](CC(C)C)C(=O)N[C@@H](CCCCN)C(=O)N[C@@H](CC(N)=O)C(=O)N[C@H](C(=O)NCC(=O)N1CCC[C@H]1C(=O)N[C@@H](CO)C(=O)N[C@@H](CO)C(=O)NCC(=O)N[C@@H](C)C(=O)N1CCC[C@H]1C(=O)N1CCC[C@H]1C(=O)N1CCC[C@H]1C(=O)N[C@@H](CO)C(N)=O)[C@@H](C)O)[C@@H](C)CC)C(=O)O [SEQ ID NO: 11, Y-Aib-E-G-T-F-T-S-D-L-S-I-Q-K(γE-x53)-E-E-R-A-A-(S)MeLys-E-F-I-E-W-L-K-N-T-G-P-S-S-G-A-P-P-P-S-NH2] (H-Y[Aib]EGTFTSDLSIQK([γGlu-Palmitoyl])EERAA[αMeK]EFIEWLKNTGPSSGAPPPS-NH2)
EC50 [1]: 5.1 pM
solubility at 2 h ([2]; pH 4.5, read-out: Solubility (pH 4.5)): 964 µg/mL (≈ 208 µM)
solubility at 2 h ([2]; pH 7.4, read-out: Solubility (pH 7.4)): 900 µg/mL (≈ 194 µM)
Stability (pH 4.5) ([3]; pH 4.5): 100.0%
Stability (pH 7.4) ([3]; pH 7.4): 99.0%
Cmax [4]: 5940 ng/mL
half-life [4]: 258 min
Cmax [5]: 302 ng/mL
half-life [5]: 756 min
Overall weight change ([6]; 3 μg/kg s.c. once daily): -3.2 ± 0.6 g
decrease of body weight, relative change from baseline ([6]; 3 μg/kg s.c. once daily): 7.6%
Overall weight change ([6]; 10 μg/kg s.c. once daily): -6.8 ± 0.7 g
decrease of body weight, relative change from baseline ([6]; 10 μg/kg s.c. once daily): 17.4%
oral glucose tolerance ([7]; 4th week, 2 g/kg oral glucose): improved oral glucose tolerance
non-fasted glucose compared to vehicle control ([7]; four weeks): reduced statistically significant
HbA1c compared to vehicle control ([7]; four weeks, p<0.05): prevented an increase of HbA1c in a statistical significant manner
reduction of AUC under the glucose curve compared to vehicle control ([7]; oral glucose tolerance test, p<0.05): reached statistical significance
increase of remaining gastric contents (female NMRI-mice; 1 μg/kg s.c.): 17%
reduction of intestinal passage (female NMRI-mice; 1 μg/kg s.c.): 44%
increase of remaining gastric contents (female NMRI-mice; 10 μg/kg s.c.): 97%
reduction of intestinal passage (female NMRI-mice; 10 μg/kg s.c.): 68%
increase of remaining gastric contents (female NMRI-mice; 100 μg/kg s.c.): 106%
reduction of intestinal passage (female NMRI-mice; 100 μg/kg s.c.): 69%

Source: US9745360B2 (Sanofi, priority 2012, dated 2017)
